PubChem BioAssay AID1259411 (Chemical Carcinogenesis Research Information System (CCRIS), 2018)
The source made the active and inactive calls. No rule for the calls is given here.

Tested on: rodent carcinogenicity bioassays, tumor incidence
Assay: CCRIS carcinogenicity studies
Method in brief: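 NCI-built, expert-reviewed records of carcinogenicity and related test outcomes (mutagenicity, tumor promotion/inhibition) compiled from published and report sources, historical span 1985-2011, not updated.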

Q: Which carcinogen call (Species: MOUSE, Strain/Sex: B6C3F1/FEMALE, Route: ORAL, Dose: 0, 10000, 20000 PPM IN DIET FOR 102-104 WK (STUDY DURATION: 102-104 WK), Dose: 0, 10000, 20000 PPM IN DIET FOR 102-104 WK (STUDY DURATION: 102-104 WK), Tumor Site: Type of Lesion: LIVER: CARCINOMA, CARCINOMA OR ADENOMA) does the source give for `CCCCC(CC)COS(=O)(=O)O` (stereo not given) here?
A: active; positive

Q: What about the carcinogen call (Species: MOUSE, Strain/Sex: B6C3F1/MALE, Route: ORAL, Dose: 0, 5000, 10000 PPM IN DIET FOR 102-104 WK (STUDY DURATION: 102-104 WK), Dose: 0, 5000, 10000 PPM IN DIET FOR 102-104 WK (STUDY DURATION: 102-104 WK)) of the same compound?
A: inactive; negative

Q: And the carcinogen call (Species: RAT, Strain/Sex: F344/FEMALE, Route: ORAL, Dose: 0, 10000, 20000 PPM IN DIET FOR 102-104 WK (STUDY DURATION: 102-104 WK), Dose: 0, 10000, 20000 PPM IN DIET FOR 102-104 WK (STUDY DURATION: 102-104 WK))?
A: inactive; negative

Q: And the carcinogen call (Species: RAT, Strain/Sex: F344/MALE, Route: ORAL, Dose: 0, 10000, 20000 PPM IN DIET FOR 102-104 WK (STUDY DURATION: 102-104 WK), Dose: 0, 10000, 20000 PPM IN DIET FOR 102-104 WK (STUDY DURATION: 102-104 WK))?
A: inactive; negative

Q: For `O=C([O-])c1cc(N=Nc2ccc(-c3ccc(N/N=c4/c(=O)cc/c(=N\Nc5cc(S(=O)(=O)[O-])ccc5[O-])c4=O)cc3)cc2)ccc1[O-].[Cu+2].[Na+].[Na+]`, which carcinogen call (Species: RAT, Strain/Sex: F344/FEMALE, Route: ORAL, Dose: 0, 190, 375, 750, 1500, 3000 PPM IN DIET FOR 91 D (STUDY DURATION: 93 D), Dose: 0, 190, 375, 750, 1500, 3000 PPM IN DIET FOR 91 D (STUDY DURATION: 93 D), Tumor Site: Type of Lesion: LIVER: HEPATOCELLULAR CARCINOMA OR NEOPLASTIC NODULE, FOCI OF CELLULAR ALTERATION OR BASOPHILIC FOCI) is on record?
A: active; positive

Q: What about the carcinogen call (Species: RAT, Strain/Sex: F344/MALE, Route: ORAL, Dose: 0, 190, 375, 750, 1500, 3000 PPM IN DIET FOR 91 D (STUDY DURATION: 93 D), Dose: 0, 190, 375, 750, 1500, 3000 PPM IN DIET FOR 91 D (STUDY DURATION: 93 D), Tumor Site: Type of Lesion: LIVER: FOCI OF CELLULAR ALTERATION OR BASOPHILIC FOCI) of the same compound?
A: active; positive

Q: For `Nc1cc([N+](=O)[O-])ccc1NC(CO)(CO)CO`, which carcinogen call (Species: RAT, Strain/Sex: SPRAGUE-DAWLEY/FEMALE, Route: ORAL, Dose: 0, 0.2, 0.6, 2% IN DIET OF MATED AND NONMATED RATS FOR UP TO 6 MO (STUDY DURATION: 6 MO), Dose: 0, 0.2, 0.6, 2% IN DIET OF MATED AND NONMATED RATS FOR UP TO 6 MO (STUDY DURATION: 6 MO), Tumor Site: Type of Lesion: MAMMARY GLAND: TUMOR) is on record?
A: active; positive

Q: What about the carcinogen call (Species: RAT, Strain/Sex: SPRAGUE-DAWLEY/MALE, Route: ORAL, Dose: 0, 0.2, 0.6, 2% IN DIET FOR UP TO 6 MO (STUDY DURATION: 6 MO), Dose: 0, 0.2, 0.6, 2% IN DIET FOR UP TO 6 MO (STUDY DURATION: 6 MO)) of the same compound?
A: inactive; negative

Q: `C=CN1CCCC1=O` was tested. Which carcinogen call (Species: RAT, Strain/Sex: SPRAGUE-DAWLEY/ MALE, Route: INHALATION, Dose: 0, 5, 10, 20 PPM 6 HR/D 5D/WK FOR 24 MO (STUDY DURATION: 24 MO), Dose: 0, 5, 10, 20 PPM 6 HR/D 5D/WK FOR 24 MO (STUDY DURATION: 24 MO), Tumor Site: Type of Lesion: LARYNX: SQUAMOUS CELL CARCINOMA, LIVER: HEPATOCELLULAR CARCINOMA, NASAL CAVITY: ADENOCARCINOMA, ADENOMA, Tumor Site: Type of Lesion: LARYNX: SQUAMOUS CELL CARCINOMA, LIVER: HEPATOCELLULAR CARCINOMA, NASAL CAVITY: ADENOCARCINOMA, ADENOMA) did it give?
A: active; positive

Q: What about the carcinogen call (Species: RAT, Strain/Sex: SPRAGUE-DAWLEY/FEMALE, Route: INHALATION, Dose: 0, 5, 10, 20 PPM 6 HR/D 5 D/WK FOR 24 MO (STUDY DURATION: 24 MO), Dose: 0, 5, 10, 20 PPM 6 HR/D 5 D/WK FOR 24 MO (STUDY DURATION: 24 MO), Tumor Site: Type of Lesion: LARYNX: SQUAMOUS CELL CARCINOMA, LIVER: HEPATOCELLULAR CARCINOMA, NASAL CAVITY: ADENOCARCINOMA, ADENOMA, Tumor Site: Type of Lesion: LARYNX: SQUAMOUS CELL CARCINOMA, LIVER: HEPATOCELLULAR CARCINOMA, NASAL CAVITY: ADENOCARCINOMA, ADENOMA) of the same compound?
A: active; positive

Q: What does the source list for `CNC[C@H](O)c1cccc(O)c1`?
A: carcinogen call (Species: MOUSE, Strain/Sex: B6C3F1/FEMALE, Route: ORAL, Dose: 0, 1250, 2500 PPM IN DIET FOR 103 WK, Dose: 0, 1250, 2500 PPM IN DIET FOR 103 WK): inactive; negative; carcinogen call (Species: MOUSE, Strain/Sex: B6C3F1/MALE, Route: ORAL, Dose: 0, 1250, 2500 PPM IN DIET FOR 103 WK, Dose: 0, 1250, 2500 PPM IN DIET FOR 103 WK): inactive; negative; carcinogen call (Species: RAT, Strain/Sex: F344/FEMALE, Route: ORAL, Dose: 0, 620, 1250 PPM IN DIET FOR 103 WK, Dose: 0, 620, 1250 PPM IN DIET FOR 103 WK): inactive; negative; carcinogen call (Species: RAT, Strain/Sex: F344/MALE, Route: ORAL, Dose: 0, 620, 1250 PPM IN DIET FOR 103 WK, Dose: 0, 620, 1250 PPM IN DIET FOR 103 WK): inactive; negative

Q: For `Cc1cc(-c2ccccc2C)ccc1N=O`, which carcinogen call (Species: HAMSTER, Strain/Sex: SYRIAN/FEMALE, Route: SUBCUTANEOUS, Dose: 0.15 MMOL/KG IN PEANUT OIL 1/WK FOR 37 WK (TOTAL DOSE 5.6 MMOL/KG), Tumor Site: Type of Lesion: INJECTION SITE: RHABDOMYOSARCOMA, SPINDLE CELL CARCINOMA, PLEIOMORPHIC SARCOMA) is on record?
A: active; positive

Q: And the carcinogen call (Species: HAMSTER, Strain/Sex: SYRIAN/MALE, Route: SUBCUTANEOUS, Dose: 0.15 MMOL/KG IN PEANUT OIL 1/WK FOR 37 WK (TOTAL DOSE 5.6 MMOL/KG), Tumor Site: Type of Lesion: INJECTION SITE: RHABDOMYOSARCOMA, PLEIOMORPHIC SARCOMA)?
A: active; positive

Q: How did the carcinogen call (Species: MOUSE, Strain/Sex: STRAIN-A/FEMALE, Route: INTRAPERITONEAL, Dose: 0, 200 UMOL MOUSE (TOTAL DOSE) ADMINISTERED IN 0.1 ML SALINE 3/WK (TOTAL 20 INJECTIONS) (STUDY DURATION: 37 WK), Tumor Site: Type of Lesion: LUNG: ADENOCARCINOMA, ADENOMA) turn out when `CN(CCC(=O)O)N=O` was run?
A: active; positive

Q: What does the source list for `Nc1ccccc1C(=O)OC/C=C/c1ccccc1`?
A: carcinogen call (Species: MOUSE, Strain/Sex: B6C3F1/FEMALE, Route: ORAL, Dose: 0, 15000, 30000 PPM IN DIET FOR 103 WK (STUDY DURATION: 105-107 WK), Dose: 0, 15000, 30000 PPM IN DIET FOR 103 WK (STUDY DURATION: 105-107 WK), Tumor Site: Type of Lesion: LIVER: HEPATOCELLULAR ADENOMA OR CARCINOMA): active; positive; carcinogen call (Species: MOUSE, Strain/Sex: B6C3F1/MALE, Route: ORAL, Dose: 0, 15000, 30000 PPM IN DIET FOR 103 WK (STUDY DURATION: 105-107), Dose: 0, 15000, 30000 PPM IN DIET FOR 103 WK (STUDY DURATION: 105-107), Tumor Site: Type of Lesion: LIVER: HEPATOCELLULAR ADENOMA OR CARCINOMA): active; positive; carcinogen call (Species: RAT, Strain/Sex: F344/FEMALE, Route: ORAL, Dose: 0, 15000, 30000 PPM IN DIET FOR 103 WK (STUDY DURATION: 105-107 WK), Dose: 0, 15000, 30000 PPM IN DIET FOR 103 WK (STUDY DURATION: 105-107 WK)): inactive; negative; carcinogen call (Species: RAT, Strain/Sex: F344/MALE, Route: ORAL, Dose: 0, 15000, 30000 PPM IN DIET FOR 103 WK (STUDY DURATION: 105-107), Dose: 0, 15000, 30000 PPM IN DIET FOR 103 WK (STUDY DURATION: 105-107), Tumor Site: Type of Lesion: PANCREAS: ACINAR CELL ADENOMA OR CARCINOMA, KIDNEY (CORTEX): ADENOMA OR ADENOCARCINOMA (NOS)): active; positive

Q: With `CC(CCC(=O)N(CC(=O)O)N=O)C1CCC2C3C(O)CC4C[C@H](O)CCC4(C)C3C[C@H](O)C12C` (stereo not given in full) as the compound, how does the carcinogen call (Species: RAT, Strain/Sex: F344/MALE, Route: GAVAGE, Dose: 0, 10 MG IN 50 µL DMSO 5 D/WK FOR 6 WK (STUDY DURATION: 108 WK), Tumor Site: Type of Lesion: LIVER: CARCINOMA) read?
A: active; positive

Q: `COc1cc2c(c3oc(=O)c4c(c13)CCC4=O)[C@]1(O)C=CO[C@@H]1O2` was tested. Which carcinogen call (Species: FISH, Strain/Sex: RAINBOW TROUT, Route: ORAL, Dose: 0, 1.5, 7.5, UG/KG DIET FOR 5.5 MO (STUDY DURATION: 5.5 MO), Dose: 0, 1.5, 7.5, UG/KG DIET FOR 5.5 MO (STUDY DURATION: 5.5 MO), Tumor Site: Type of Lesion: LIVER: HEPATOMA) did it give?
A: active; positive

Q: What about the carcinogen call (Species: RAT, Strain/Sex: F344/MALE, Route: ORAL, Dose: 0, 0.5, 5, 50 PPB IN AGAR BASED SEMISYNTHETIC DIET FOR STUDY DURATION (STUDY DURATION: 21 MO), Dose: 0, 0.5, 5, 50 PPB IN AGAR BASED SEMISYNTHETIC DIET FOR STUDY DURATION (STUDY DURATION: 21 MO), Tumor Site: Type of Lesion: LIVER: NEOPLASTIC NODULE, HEPATOCELLULAR CARCINOMA) of the same compound?
A: active; positive

Q: What about the carcinogen call (Species: TROUT, Strain/Sex: MT. SHASTA RAINBOW, Route: ORAL, Dose: 4, 16, 32, 64 PPB IN DIET FOR 12 MO, Dose: 4, 16, 32, 64 PPB IN DIET FOR 12 MO, Tumor Site: Type of Lesion: LIVER: HEPATOMA) of the same compound?
A: active; positive
